Measurements taken from patent publication US6699676B1, “Uses of ouabain and ouabain-like molecules in apoptosis related pathologies” (Corporation du Centre de Recherche du Centre, Hospitalier …, priority 1999, dated 2004).

Tests used:
VSMC-E1A [1] = test: Cell morphology by phase contrast microscopy in VSMC-E1A; format: cell-based, rat; conditions: 1 mM ouabain pretreatment, 6 hours serum-deprived medium
Procedure: (§1) FIG. 3. Effect of ouabain on morphology (A) and DNA laddering (B and C) in VSMC-E1A. In experiments with ouabain, cells were pretreated with 1 mM of this compound 1 hour before 6 hours exposure to serum-free medium. A. Cell morphology was evaluated by phase contrast microscopy without preliminary fixation. a, c) DMEM containing 10% calf serum; b, d) serum-free DMEM; a, b) without ouabain; c, d) in the presence of ouabain. Micro graphs were prepared using a Nikon phase contrast microscope at ×100 magnification. Apoptotic cells are shown by arrows. B. DNA laddering (left part of the figure) was analyzed with a PhosphorImager, and relative content of low molecular weight DNA fragments (1,500−125 bp−right part of the figure) in cells incubated with 10% calf serum (CS) in the absence of ouabain was taken as 100%. Means±S.E. obtained in 2 experiments performed in triplicate are shown.

VSMC [2] = test: Protein synthesis in VSMC; conditions: 8 hours incubation with ouabain, data not shown
VSMC-E1A [3] = test: 3'-end DNA labeling / DNA laddering in VSMC-E1A; format: cell-based, rat; conditions: 1 mM ouabain, serum deprivation
Procedure: as §1
3′-end DNA labeling. VSMC-E1A seeded in 75 cm^2 flasks were treated with 4 ml of lysis buffer containing 50 mM tris-HCI, 20 mM EDTA (pH 8.0), 0.5% SDS and 500 μg/ml proteinase K. The lysate was incubated at 50° C. for 3 hours, mixed with 250 μg/ml RNAase A and incubated for 1 hour at 37° C. […] After 1 hour incubation at 37° C., the aliquots were loaded on 1.5% agarose gel, run at 100 V for 3 to 4 hours, transferred onto a nylon membrane (Hybond N+, Amersham), and analyzed with a PhosphorImager. […]

VSMC [4] = test: Chromatin cleavage assay in non-transfected VSMC; format: cell-based, rat
Procedure: Cells were incubated in K^+-containing medium consisting of 91 mM NaCl, 5 mM KCl, 0.9 mM NaH2PO4, 44 mM NaHCO3, 1.8 mM CaCl2, 0.8 mM MgCl2, 33 mM HEPES and 5 mM D-glucose (pH 7.4) (lines 1 and 2) or in K^+-depleted medium (equimolar substitution of KCl by NaCl, line 3) with or without 10% calf serum (CS) and 1 mM ouabain as indicated. In experiments with VSMC-MYC and VSMC-E1A, cells were preincubated for 1 hr with ouabain or with K^+-depleted medium in the presence of CS and then subjected to treatment with serum-free media. After 24 hours (VSMC) or 6 hours (VSMC-MYC and VSMC-E1A), the content of chromatin fragments was measured as described in Experimental Procedures. Mean values±S.E. obtained in 3 experiments performed in quadruplicate (VSMC) or triplicate (VSMC-MYC, VSMC-E1A) are given. ★, ★★ p<0.05 and 0.001 compared to the controls.
VSMC growing in 6-well (LDH release) or 24-well (chromatin cleavage assay) plates were preincubated for 3 hours with or without 1 mM ouabain. In part of the experiments, the cells were subjected to 30 min incubation at 46° C. (heat-treated cells, line 3). They were then incubated in the absence or presence of 10% calf serum during additional 8 hr and chromatin cleavage and LDH release were measured as indicated in Experimental Procedures and with a spectrophotometric kit (Sigma), respectively. Means±S.E. from experiments performed in triplicate (LDH release) or quadruplicate (chromatin cleavage) are given. ★, ★★ p<0.05 and 0.001 compared to ouabain-untreated cells. #p<0.001 compared to serum-supplied, heat-untreated cells.
Cells. VSMC were obtained by explant methods from aortas of 10- to 13-week-old male rats as described previously (17), cultured in DMEM with 10% calf serum, 100 U/ml penicillin, 100 µg/ml streptomycin and used between 10 to 16 passages. Cells transfected with c-myc (VSMC-MYC) and E1A-adenovirus (VSMC-E1A) were obtained in accordance with a previously-described protocol (18,19) and were cultured in the same medium with the addition of 500 µg/ml genticin. Jurkat cells were obtained from the American Type Culture Collection and cultured in RPMI 1640 medium supplied with 10% calf serum, antibiotics, sodium pyruvate, glutamate and β-mercaptoethanol.
Chromatin cleavage assay. Chromatin cleavage in VSMC was estimated by a technique described previously in detail (10). Briefly, VSMC grown in 24-well dishes were labeled for 24 hours in serum-supplied DMEM with [^3H]-thymidine (1 μCi/ml), washed with 2×2 ml of DMEM and incubated in serum-supplied DMEM. […] After 15 min, the cell lysate was transferred to Ependorf tubes, sedimented (12,000 rpm, 10 mm), and 1 ml of supernatant was transferred for the measurement of radioactivity (A1t). The remaining radioactivity from pellets and wells was extracted with 0.5 ml of 1% SDS/4 mM EDTA mixture, combined and counted (A2). Chromatin cleavage was quantified as the content of chromatin fragments normalized by total content of [^3H]-labeled DNA in accordance with the equation [1.5×(A1t−A1o)/(A2+A1t−1.5A1o)]×100% where A1o is the value of A1t before induction of apoptosis. […] At the time intervals shown in FIG. 4, 100 μl of cell suspension was mixed with 100 μl of PBS contairung 0.5% triton X100, and the content of chromatin fragments was measured as described previously in detail (20).

## C[C@@H]1O[C@@H](O[C@H]2C[C@@H](O)[C@]3(CO)[C@H]4[C@H](O)C[C@]5(C)[C@@H](C6=CC(=O)OC6)CC[C@]5(O)[C@@H]4CC[C@]3(O)C2)[C@H](O)[C@H](O)[C@H]1O [Ouabain, 1β,3β,5,11α,14,19-hexahydroxycard 20 [22]-enolide 3-[6-deoxy-α-L-mannopyrano-sidel]]
VSMC-E1A [1]
  number of apoptotic cells: sharply decreased the number of apoptotic cells
VSMC [2]
  protein synthesis: did not observe any significant effect
VSMC-E1A [3]
  DNA laddering and low molecular weight 3'-end labeled DNA fragments: prevented DNA laddering
VSMC [4]; VSMC, 10% CS, 1 mM ouabain, 24 hours
  Chromatin fragments (%): 1.6 ± 0.3%
VSMC [4]; VSMC, CS-free, 1 mM ouabain, 24 hours
  Chromatin fragments (%): 2.5 ± 0.6 %
VSMC [4]; serum-deprived VSMC, 3 hours preincubation 1 mM ouabain, additional 8 hr
  Chromatin fragments (%): 1.8 ± 0.3 %
VSMC [4]; serum-supplied VSMC, 3 hours preincubation 1 mM ouabain, additional 8 hr
  Chromatin fragments (%): 1.3 ± 0.4 %
VSMC [4]; serum-supplied, heat-treated (46° C., 30 min) VSMC, 1 mM ouabain, 8 hr
  Chromatin fragments (%): 1.6 ± 0.4%
